How the values were obtained:
CB1 (rCB1) [1] = biological target: T1, CB1 (rCB1) (Rattus norvegicus, UniProt P20272); assay: Single-point radioligand displacement screen; format: binding; conditions: 10 µM, 1 µM or 300 nM by cell colour (not visible)
hCB1 = hCB1 (Homo sapiens, UniProt P21554); assay: bioSensAll ebBRET signaling profiling, hCB1; format: cell-based; parameters: host or cells: HEK293SL cells, transient PEI transfection; conditions: for Barr2+GRK2 hCB1 response: Barr2+GRK2 biosensor; for Gi1 hCB1 / GoB hCB1: single replicate values, FigS6a
CB1 (rCB1) [2] = biological target: T1, CB1 (rCB1); assay: Radioligand competition binding, [3H]-CP-55,940, rat brain membranes

Sequence of hCB1 (P21554 whole entry): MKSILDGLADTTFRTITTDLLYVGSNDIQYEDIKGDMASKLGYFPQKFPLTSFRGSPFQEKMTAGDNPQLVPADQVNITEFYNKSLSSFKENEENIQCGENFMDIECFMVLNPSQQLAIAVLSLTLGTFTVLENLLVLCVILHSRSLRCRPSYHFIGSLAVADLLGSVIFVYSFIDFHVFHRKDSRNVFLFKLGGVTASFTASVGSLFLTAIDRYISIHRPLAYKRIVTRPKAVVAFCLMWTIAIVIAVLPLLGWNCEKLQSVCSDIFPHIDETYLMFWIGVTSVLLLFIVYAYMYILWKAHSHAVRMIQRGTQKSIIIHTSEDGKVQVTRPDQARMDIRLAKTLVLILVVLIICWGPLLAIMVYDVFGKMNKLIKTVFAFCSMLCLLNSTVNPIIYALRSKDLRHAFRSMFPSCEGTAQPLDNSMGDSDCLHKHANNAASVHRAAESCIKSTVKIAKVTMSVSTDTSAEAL
T1 sequence (P20272 whole entry): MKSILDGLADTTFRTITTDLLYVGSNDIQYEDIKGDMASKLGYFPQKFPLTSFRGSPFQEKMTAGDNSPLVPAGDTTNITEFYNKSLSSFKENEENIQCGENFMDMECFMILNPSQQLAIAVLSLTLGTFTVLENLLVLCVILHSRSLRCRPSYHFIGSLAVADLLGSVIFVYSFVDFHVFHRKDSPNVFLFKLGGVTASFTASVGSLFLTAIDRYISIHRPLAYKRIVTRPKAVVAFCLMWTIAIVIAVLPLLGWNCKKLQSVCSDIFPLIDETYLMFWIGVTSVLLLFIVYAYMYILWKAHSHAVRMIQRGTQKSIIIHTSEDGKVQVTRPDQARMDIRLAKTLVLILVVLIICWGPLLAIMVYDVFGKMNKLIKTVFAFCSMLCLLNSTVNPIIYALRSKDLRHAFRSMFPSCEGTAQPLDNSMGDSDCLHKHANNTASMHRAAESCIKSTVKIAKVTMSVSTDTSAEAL

## Brc1cc2c(cc1Cc1noc(-c3cnn(CC4CC4)c3)n1)OCO2 [‘5424]
CB1 (rCB1) [1]
  % 1H-CP-55,940 displacement (mean) from single point screen: 80.66%
hCB1; Log [Compound] (M) -4.22186
  Barr2+GRK2 hCB1 response: 13.3846
  Gi1 hCB1: -12.5553
  GoB hCB1: -17.0204
hCB1; Log [Compound] (M) -4.63927
  Barr2+GRK2 hCB1 response: -34.7954
  Gi1 hCB1: -11.9852
  GoB hCB1: -18.7739
hCB1; Log [Compound] (M) -5.05788
  Barr2+GRK2 hCB1 response: -53.3016
  Gi1 hCB1: -14.0757
  GoB hCB1: -12.8536
hCB1; Log [Compound] (M) -5.47381
  Barr2+GRK2 hCB1 response: -24.9041
  Gi1 hCB1: -12.6978
  GoB hCB1: -15.4926
hCB1; Log [Compound] (M) -5.89285
  Barr2+GRK2 hCB1 response: -50.1109
  Gi1 hCB1: -12.001
  GoB hCB1: -16.569
hCB1; Log [Compound] (M) -6.31878
  Barr2+GRK2 hCB1 response: -50.749
  Gi1 hCB1: -13.0779
  GoB hCB1: -15.128
hCB1; Log [Compound] (M) -6.72585
  Barr2+GRK2 hCB1 response: -48.8346
  Gi1 hCB1: -11.811
  GoB hCB1: -16.3259
hCB1; Log [Compound] (M) -7.14267
  Barr2+GRK2 hCB1 response: -52.6635
  Gi1 hCB1: -11.1775
  GoB hCB1: -15.4926
hCB1; Log [Compound] (M) -7.55284
  Barr2+GRK2 hCB1 response: -51.0681
  Gi1 hCB1: -10.8449
  GoB hCB1: -14.0342
hCB1; Log [Compound] (M) -8
  Barr2+GRK2 hCB1 response: -33.5191
  Gi1 hCB1: -8.707
  GoB hCB1: -12.871
hCB1; Log [Compound] (M) -8.22186
  Barr2+GRK2 hCB1 response: -13.7366
  Gi1 hCB1: -5.46
  GoB hCB1: -9.781
hCB1; Log [Compound] (M) -8.39794
  Barr2+GRK2 hCB1 response: -34.7954
  Gi1 hCB1: -6.126
  GoB hCB1: -10.3709
hCB1; Log [Compound] (M) -8.68787
  Barr2+GRK2 hCB1 response: -65.1073
  Gi1 hCB1: -3.497
  GoB hCB1: -5.77
hCB1; Log [Compound] (M) -9.15521
  Barr2+GRK2 hCB1 response: -41.4959
  Gi1 hCB1: -3.212
  GoB hCB1: -5.544
hCB1; Log [Compound] (M) -9.61989
  Barr2+GRK2 hCB1 response: -48.1965
  Gi1 hCB1: -0.3926
  GoB hCB1: -4.867
hCB1; Log [Compound] (M) -10.0969
  Barr2+GRK2 hCB1 response: -56.8114
  Gi1 hCB1: -1.39
  GoB hCB1: -5.128
hCB1; Log [Compound] (M) -10.5529
  Barr2+GRK2 hCB1 response: -48.8346
  Gi1 hCB1: 0.9853
  GoB hCB1: -3.287
hCB1; Log [Compound] (M) -11.0177
  Barr2+GRK2 hCB1 response: -49.7918
  Gi1 hCB1: -1.058
  GoB hCB1: -4.781
hCB1; Log [Compound] (M) -11.4949
  Barr2+GRK2 hCB1 response: -48.1965
  Gi1 hCB1: -2.008
  GoB hCB1: -5.51
hCB1; Log [Compound] (M) -11.9208
  Barr2+GRK2 hCB1 response: -46.9202
  Gi1 hCB1: -4.653
  GoB hCB1: -6.586
hCB1; Log [Compound] (M) -12.3979
  Barr2+GRK2 hCB1 response: -47.8774
  Gi1 hCB1: -2.024
  GoB hCB1: -6.3778
hCB1; Log [Compound] (M) -12.8861
  Barr2+GRK2 hCB1 response: -20.4371
  Gi1 hCB1: -1.992
  GoB hCB1: -4.242
hCB1; Log [Compound] (M) -13.3979
  Barr2+GRK2 hCB1 response: -11.8221
hCB1; Log [Compound] (M) -13
  Gi1 hCB1: 0.06671
  GoB hCB1: -4.798
hCB1; Log [Compound] (M) cell empty
  Gi1 hCB1: -0.7726
  GoB hCB1: -5.458
CB1 (rCB1) [2]
  Ki: 0.876 µM

From PMC11882969 (Nature Communications, 2025)
